Measurements reported in ChEMBL document CHEMBL1201862, “PubChem BioAssay data set” (2004).
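Values below derive from 48-hour exposures of cells grown in 96-well plates, with endpoints linearly interpolated between the two concentrations bracketing the appropriate inhibition level. Here, GI50 denotes the concentration required for 50% inhibition of growth.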 Calls of active or inactive are those of the source. Rule as the data show it: active = GI50 up to about 1.1 µM and inactive = higher.

Legend:
Assay in all cases: NCI anticancer screen, dose series, 48 h
[1] = test system: SR
[2] = test system: OVCAR-3
[3] = test system: HCC 2998
[4] = test system: HCT-116
[5] = test system: CCRF-CEM
[6] = test system: NCI-H23
[7] = test system: KM-20L2
[8] = test system: UO-31
[9] = test system: HL-60
[10] = test system: SNB-75
[11] = test system: SF-295
[12] = test system: CAKI-1
[13] = test system: TK-10
[14] = test system: DMS-114
[15] = test system: M14
[16] = test system: HOP-18
[17] = test system: K562
[18] = test system: DU-145
[19] = test system: MCF7
[20] = test system: T47D

Measured: GI50

COc1ccc2c(c1)CC1c3c(ccc(OC)c3O)CC2N1C (stereo not drawn)
inactive: [1] 15.3 µM | [2] 29.2 µM | [3] 16.8 µM | [4] 19.6 µM | [5] 23.3 µM | [6] 43.6 µM | [7] 28.4 µM | [8] 30.8 µM | [9] 16.2 µM | [10] 38.3 µM | [11] 22.8 µM | [12] 40 µM | [13] 64.4 µM | [14] 19.7 µM | [15] 16.5 µM | [16] 71.1 µM | [17] 20.4 µM

CN(C)CC1CC/C(=C\c2ccc3c(c2)OCO3)C1=O (stereo not drawn)
inactive: [1] 2.82 µM | [18] 7.66 µM | [2] 7.74 µM | [3] 22.1 µM | [4] 6.75 µM | [5] 2.79 µM | [6] 9.62 µM | [7] 19.7 µM | [8] 10.6 µM | [9] 2.56 µM | [10] 5.53 µM | [11] 23.1 µM | [12] 8.89 µM | [13] 11.1 µM | [14] 18.4 µM | [15] 7.4 µM | [19] 3.96 µM | [16] 15.9 µM | [17] 2.83 µM

COc1c(C)c2c(c3c1c(=O)c1ccccc1n3C)C=CC(C)(C)O2
inactive: [1] 12.5 µM | [2] 19.6 µM | [3] 28.4 µM | [4] 18.5 µM | [5] 21.4 µM | [6] 27.1 µM | [7] 16.4 µM | [8] 26.5 µM | [9] 9.73 µM | [10] 20.4 µM | [11] 17.9 µM | [12] 26.2 µM | [13] 48.3 µM | [14] 14.5 µM | [15] 15.5 µM | [16] 38.1 µM | [17] 13.4 µM

Cc1cccc(NC(=O)c2cccc([N+](=O)[O-])c2O)c1C
inactive: [1] 20.1 µM | [18] 37.3 µM | [2] 18.1 µM | [3] 28.4 µM | [4] 28.2 µM | [5] 14.9 µM | [6] 17.5 µM | [7] 21.8 µM | [8] 17.9 µM | [9] 13.4 µM | [10] 22.8 µM | [11] 24.4 µM | [12] 27.4 µM | [13] 53.6 µM | [20] 24.9 µM | [14] 32.4 µM | [15] 41.5 µM | [19] 27.4 µM | [16] 4.74 µM | [17] 12.1 µM
